Laboratory results as given in patent publication US20070117743A1, “New antitumoral compounds” (priority 2003, published 2007).
Where a SMILES comes first, the peptide text is derived from it. Bridges are numbered along the chain shown (N, C = ends). [ ]: non-standard residue; d: D form. The star is where a group is joined. Bip = N[C@@H](Cc1ccc(-c2ccccc2)cc1)C(=O)O; 2Nal = N[C@@H](Cc1ccc2ccccc2c1)C(=O)O; d(aIle) = CC[C@H](C)[C@@H](N)C(=O)O; d(aThr) = C[C@@H](O)[C@@H](N)C(=O)O; Hexanoyl(5-Me) = CC(C)CCCC(=O)*; Orn = NCCC[C@H](N)C(=O)O; Dhb = C/C=C(\N)C(=O)O

How the values were obtained:
Type in all cases: cell-based, human
SK-BR-3 = test: SRB colorimetric assay of cell growth and viability, SK-BR-3; conditions: SK-BR-3; 48 hours exposure
Excerpt: The finality of this assay is to interrupt the growth of a “in vitro” tumor cell culture by means a continued exhibition of the cells to the sample to be testing.
This form of the assay employs 96 well cell culture microplates of 9 mm diameter (Faircloth, 1988; Mosmann, 1983). Most of the cell lines are obtained from American Type Culture Collection (ATCC) derived from different human cancer types.
Cells are maintained in RPMI 1640 10% FBS, supplemented with 0.1 g/l penicillin and 0.1 g/l streptomycin sulfate and then incubated at 37° C., 5% CO2 and 98% humidity. For the experiments, cells were harvested from subconfluent cultures using trypsin and resuspended in fresh medium before plating.
Cells are seeded in 96 well microtiter plates, at 5×10^3 cells per well in aliquots of 195 μL medium, and they are allowed to attach to the plate surface by growing in drug free medium for 18 hours. Afterward, samples are added in aliquots of 5 μL in a ranging from 10 to 10^−8 μg/mL, dissolved in DMSO:EtOH:PBS (0.5:0.5:99). After 48 hours exposure, the antitumor effect are measured by the SRB methodology: cells are fixed by adding 50 μL of cold 50% (wt/vol) trichloroacetic acid (TCA) and incubating for 60 minutes at 4° C. Plates are washed with deionized water and dried. One hundred μL of SRB solution (0.4% wt/vol in 1% acetic acid) is added to each microtiter well and incubated for 10 minutes at room temperature. Unbound SRB is removed by washing with 1% acetic acid. Plates are air dried and bound stain is solubilized with Tris buffer. Optical densities are read on a automated spectrophotometric plate reader at a single wavelength of 490 nm.
The values for mean+/− SD of data from triplicate wells are calculated. Some parameters for cellular responses can be calculated: GI=growth inhibition, TGI=total growth inhibition (cytostatic effect) and LC=cell killing (cytotoxic effect).

DU-145 = test: SRB colorimetric assay of cell growth and viability, DU-145; conditions: DU-145; 48 hours exposure
LoVo = test: SRB colorimetric assay of cell growth and viability, LoVo; conditions: LOVO, 48 hours exposure; for CC50: read-out: LC50 LOVO
HT-29 = test: SRB colorimetric assay of cell growth and viability, HT-29; conditions: HT-29, 48 hours exposure; for GI50: read-out: GI50 HT-29; for CC50: read-out: LC50 HT-29
K-562 = test: SRB colorimetric assay of cell growth and viability, K-562; conditions: K-562, 48 hours exposure; for CC50: read-out: LC50 K-562
IGROV-ET = test: SRB colorimetric assay of cell growth and viability, IGROV-ET; conditions: IGROV-ET, 48 hours exposure; for CC50: read-out: LC50 IGROV-ET
A-549 = test: SRB colorimetric assay of cell growth and viability, A-549; conditions: A-549, 48 hours exposure; for GI50: read-out: GI50 A-549; for CC50: read-out: LC50 A-549
IGROV-1 = test: SRB colorimetric assay of cell growth and viability, IGROV-1; conditions: IGROV; 48 hours exposure
HeLa = test: SRB colorimetric assay of cell growth and viability, HeLa; conditions: HELA, 48 hours exposure; for CC50: read-out: LC50 HELA
HeLa-APL = test: SRB colorimetric assay of cell growth and viability, HeLa-APL; conditions: HELA-APL, 48 hours exposure; for CC50: read-out: LC50 HELA-APL
PANC-1 = test: SRB colorimetric assay of cell growth and viability, PANC-1; conditions: PANC-1, 48 hours exposure; for CC50: read-out: LC50 PANC-1
LoVo-Dox = test: SRB colorimetric assay of cell growth and viability, LoVo-Dox; conditions: LOVO-DOX, 48 hours exposure; for CC50: read-out: LC50 LOVO-DOX
Outline: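 48 h continuous exposure, 10 to 10^−8 μg/mL; 5×10^3 cells/well, 18 h attachment; TCA fix, 0.4% SRB, OD 490 nm. Triplicates; GI, TGI, LC derived.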

SK-MEL-28 = test: SRB colorimetric assay of cell growth and viability, SK-MEL-28; conditions: MEL-28, 48 hours exposure; for CC50: read-out: LC50 MEL-28

SMILES | GI50 (SK-BR-3) | LC50 (SK-BR-3) | TGI SK-BR-3 (SK-BR-3) | GI50 (DU-145) | LC50 (concentration causing 50% net cell kill) (DU-145) | TGI DU-145 (DU-145) | GI50 (LoVo) | TGI LOVO (LoVo) | CC50 (LoVo) | TGI HT-29 (HT-29) | GI50 (HT-29) | CC50 (HT-29) | GI50 (K-562) | TGI K-562 (K-562) | CC50 (K-562) | GI50 (IGROV-ET) | TGI IGROV-ET (IGROV-ET) | CC50 (IGROV-ET) | TGI A-549 (A-549) | GI50 (A-549) | also measured
C/C=C1\NC(=O)[C@H](Cc2ccc3ccccc3c2)NC(=O)[C@@H](C(C)C)NC(=O)[C@@H]([C@@H](C)CC)NC(=O)[C@H](NC(=O)[C@H](NC(=O)[C@H](CCCN)NC(=O)[C@H]2CCCN2C(=O)[C@H](NC(=O)[C@@H](NC(=O)[C@@H](NC(=O)[C@H](NC(=O)CCCC(C)C)C(C)C)[C@@H](C)O)C(C)C)C(C)C)[C@@H](C)CC)[C@@H](C)OC(=O)[C@H](C(C)C)NC1=O [Compound 85, [Nal^3]-KF] ({Hexanoyl(5-Me)}-[dV]TV[dV][dP][Orn][d(aIle)][d(aThr)][d(aIle)][dV][2Nal][Dhb]V; ester 8-C) | 37.1 nM | 170 nM | 5.80E−08 Molar | 111 nM | 488 nM | 2.53E−07 Molar | 32.8 nM | 8.16E−08 Molar | 192 nM | 1.16E−07 Molar | 73.1 nM | 278 nM | 301 nM | 7.13E−07 Molar | 1380 nM | 74.3 nM | 1.44E−07 Molar | 425 nM | 3.39E−07 Molar | 192 nM | CC50 (A-549): 599 nM; GI50 (IGROV-1): 49.8 nM; LC50 (concentration causing 50% net cell killing) (IGROV-1): 169 nM; TGI IGROV (IGROV-1): 9.81E−08 Molar; GI50 (HeLa): 78.6 nM; TGI HELA (HeLa): 1.94E−07 Molar; CC50 (HeLa): 462 nM; GI50 (HeLa-APL): 90.7 nM; TGI HELA-APL (HeLa-APL): 1.91E−07 Molar; CC50 (HeLa-APL): 427 nM; GI50 (PANC-1): 694 nM; TGI PANC-1 (PANC-1): 1.04E−06 Molar; CC50 (PANC-1): 1570 nM; GI50 (LoVo-Dox): 37 nM; TGI LOVO-DOX (LoVo-Dox): 8.77E−08 Molar; CC50 (LoVo-Dox): 847 nM; GI50 (SK-MEL-28): 230 nM; TGI MEL-28 (SK-MEL-28): 3.64E−07 Molar; CC50 (SK-MEL-28): 579 nM
C/C=C1\NC(=O)[C@H](Cc2cccc(Cl)c2)NC(=O)[C@@H](C(C)C)NC(=O)[C@@H]([C@@H](C)CC)NC(=O)[C@H](NC(=O)[C@H](NC(=O)[C@H](CCCN)NC(=O)[C@H]2CCCN2C(=O)[C@H](NC(=O)[C@@H](NC(=O)[C@@H](NC(=O)[C@H](NC(=O)CCCC(C)C)C(C)C)[C@@H](C)O)C(C)C)C(C)C)[C@@H](C)CC)[C@@H](C)OC(=O)[C@H](C(C)C)NC1=O [Compound 82, [Phe(3-Cl)^3]-KF] | 58.9 nM | 184 nM | 1.04E−07 Molar | 209 nM | 553 nM | 3.40E−07 Molar | 40.6 nM | 8.73E−08 Molar | 180 nM | 1.19E−07 Molar | 77.5 nM | 187 nM | 658 nM | 1.02E−06 Molar | 1590 nM | 110 nM | 2.20E−07 Molar | 576 nM | 6.03E−07 Molar | 291 nM | CC50 (A-549): 1490 nM; GI50 (IGROV-1): 69.5 nM; LC50 (concentration causing 50% net cell killing) (IGROV-1): 182 nM; TGI IGROV (IGROV-1): 1.13E−07 Molar; GI50 (HeLa): 127 nM; TGI HELA (HeLa): 2.75E−07 Molar; CC50 (HeLa): 521 nM; GI50 (HeLa-APL): 192 nM; TGI HELA-APL (HeLa-APL): 3.25E−07 Molar; CC50 (HeLa-APL): 551 nM; GI50 (PANC-1): 965 nM; TGI PANC-1 (PANC-1): 1.84E−06 Molar; CC50 (PANC-1): 1840 nM; GI50 (LoVo-Dox): 45.3 nM; TGI LOVO-DOX (LoVo-Dox): 9.10E−08 Molar; CC50 (LoVo-Dox): 892 nM; GI50 (SK-MEL-28): 297 nM; TGI MEL-28 (SK-MEL-28): 4.41E−07 Molar; CC50 (SK-MEL-28): 935 nM
C/C=C1\NC(=O)[C@H](Cc2ccc(Cl)cc2)NC(=O)[C@@H](C(C)C)NC(=O)[C@@H]([C@@H](C)CC)NC(=O)[C@H](NC(=O)[C@H](NC(=O)[C@H](CCCN)NC(=O)[C@H]2CCCN2C(=O)[C@H](NC(=O)[C@@H](NC(=O)[C@@H](NC(=O)[C@H](NC(=O)CCCC(C)C)C(C)C)[C@@H](C)O)C(C)C)C(C)C)[C@@H](C)CC)[C@@H](C)OC(=O)[C@H](C(C)C)NC1=O [Compound 83, [Phe(4-Cl)^3]-KF] | 34.2 nM | 155 nM | 5.29E−08 Molar | 83 nM | 461 nM | 2.07E−07 Molar | 30.3 nM | 6.27E−08 Molar | 165 nM | 8.24E−08 Molar | 36.8 nM | 172 nM | 333 nM | 5.08E−07 Molar | 1130 nM | 65.2 nM | 1.21E−07 Molar | 587 nM | 3.62E−07 Molar | 221 nM | CC50 (A-549): 593 nM; GI50 (IGROV-1): 37.1 nM; LC50 (concentration causing 50% net cell killing) (IGROV-1): 143 nM; TGI IGROV (IGROV-1): 7.69E−08 Molar; GI50 (HeLa): 51.9 nM; TGI HELA (HeLa): 2.00E−07 Molar; CC50 (HeLa): 475 nM; GI50 (HeLa-APL): 96.5 nM; TGI HELA-APL (HeLa-APL): 2.28E−07 Molar; CC50 (HeLa-APL): 470 nM; GI50 (PANC-1): 658 nM; TGI PANC-1 (PANC-1): 1.07E−06 Molar; CC50 (PANC-1): 1750 nM; GI50 (LoVo-Dox): 38.2 nM; TGI LOVO-DOX (LoVo-Dox): 7.81E−08 Molar; CC50 (LoVo-Dox): 1840 nM; GI50 (SK-MEL-28): 206 nM; TGI MEL-28 (SK-MEL-28): 3.40E−07 Molar; CC50 (SK-MEL-28): 561 nM
C/C=C1\NC(=O)[C@H](Cc2ccc(-c3ccccc3)cc2)NC(=O)[C@@H](C(C)C)NC(=O)[C@@H]([C@@H](C)CC)NC(=O)[C@H](NC(=O)[C@H](NC(=O)[C@H](CCCN)NC(=O)[C@H]2CCCN2C(=O)[C@H](NC(=O)[C@@H](NC(=O)[C@@H](NC(=O)[C@H](NC(=O)CCCC(C)C)C(C)C)[C@@H](C)O)C(C)C)C(C)C)[C@@H](C)CC)[C@@H](C)OC(=O)[C@H](C(C)C)NC1=O [Compound 86, [Bip^3]-KF] ({Hexanoyl(5-Me)}-[dV]TV[dV][dP][Orn][d(aIle)][d(aThr)][d(aIle)][dV][Bip][Dhb]V; ester 8-C) | 28.9 nM | 5070 nM | 1.79E−07 Molar | 124 nM | 527 nM | 2.56E−07 Molar | 63.7 nM | 2.89E−07 Molar | 4680 nM | 3.73E−07 Molar | 129 nM | 5070 nM | 1100 nM | 2.32E−06 Molar | 4870 nM | 150 nM | 1.00E−06 Molar | ≥ 6430 nM | 2.87E−07 Molar | 125 nM | CC50 (A-549): 810 nM; GI50 (IGROV-1): 181 nM; LC50 (concentration causing 50% net cell killing) (IGROV-1): ≥ 6430 nM; TGI IGROV (IGROV-1): 5.23E−07 Molar; GI50 (HeLa): 177 nM; TGI HELA (HeLa): 8.17E−07 Molar; CC50 (HeLa): 3900 nM; GI50 (HeLa-APL): 424 nM; TGI HELA-APL (HeLa-APL): 1.65E−06 Molar; CC50 (HeLa-APL): 6070 nM; GI50 (PANC-1): 984 nM; TGI PANC-1 (PANC-1): 2.17E−06 Molar; CC50 (PANC-1): 4770 nM; GI50 (LoVo-Dox): 73.3 nM; TGI LOVO-DOX (LoVo-Dox): 2.69E−07 Molar; CC50 (LoVo-Dox): ≥ 6430 nM; GI50 (SK-MEL-28): 183 nM; TGI MEL-28 (SK-MEL-28): 4.11E−07 Molar; CC50 (SK-MEL-28): 2480 nM
